Source: patent US8715947B2, “Inhibition of the interaction between 5T4 oncofoetal glycoproteins and CXC chemokine receptors as a method of identifying chemotaxis inhibitors” (Cancer Research Technology Limited, priority 2009, dated 2014)
“Also recorded” adds a separate entry of the source.

Legend:
[1] = tested on: WT-ES cells; assay: CXCL12 chemotaxis of WT-ES cells in transwell chambers; format: cell-based, mouse
Description: (§1) Chemotaxis was assessed using transwell chambers as previously described for cellular motility assays [16; the contents of which are expressly incorporated herein in their entirety] in the presence or absence of the chemokine CXCL12 (R&D systems), at a concentration of 10 ng/well for ES cell experiments, and 30 ng/well for all others. Inhibition studies were performed in the presence of 10 μM Diprotin A (Sigma) for CD26, 10 μM AMD3100 (Sigma) for CXCR4 or 10 μg/well mouse anti-CXCL12 (R&D systems) or Pertussis Toxin (Sigma, 10 ng/ml). For m5T4 specific mAb inhibition of chemotaxis or control Ig; antibodies were premixed with 50,000 differentiating WT-ES or MEF cells/ml and added to the transwell chambers as above. CXCL16 (R&D 10 ng/ml), the ligand for CXCR6 and CXCL10 (R&D 100 ng/ml), a ligand for CXCR3 were used to assess chemotaxis in undifferentiated and/or differentiating WT and 5T4KO ES cells.

[2] = tested on: ERK phosphorylation; assay: ERK phosphorylation in MEFs by Western blot; format: cell-based, mouse; conditions: 50 μM PD98059, 50 μM LY294002 or 10 μM AMD3100; for increase in ERK phosphorylation in response to CXCL12 stimulation: WT MEFs; for increase in ERK1/2 phosphorylation in response to PMA stimulation: WT and 5T4KO MEFs
Description: Western blots were carried out using a BioRad Mini-PROTEAN Tetra (Thermo Fisher) supplemented with protease and phosphatase inhibitor cocktails (Thermo Fisher). RIPA buffer (50 mM Tris-Cl pH 7.4, 150 mM NaCl, 1% NP40, 0.25% Na-deoxycholate, 1 mM PMSF and protease and phosphatase inhibitor cocktail) was used as an alternative method of cell lysis. […] Other primary antibodies used were ERK1/2, phospho-ERK1/2 (Thr202/Tyr204/Thr185/Tyr187), AKT and phospho-AKT (Thr308) (Cell Signalling Technology) at 1:1000. Following secondary antibody labelling using appropriate HRP conjugates (AbSerotec) hybridizing bands were detected using SuperSignal West Dura (Thermo Fischer). For immunoprecipitation experiments cells were lysed in M-PER (Thermo Fischer) according to manufacturer's instructions and enriched for the membrane fraction on a 45% sucrose gradient by ultracentrifugation. 100 μg of the membrane enriched fraction was incubated with 1 μg of rabbit polyclonal anti-CXCR4 (Abcam) or 1 μg of mouse anti-monoclonal h5T4 or appropriate irrelevant control antibodies for 1 hour at room temperature. A 50% slurry of Protein G beads (Amersham) was then added and incubated for 1 hour at room temperature. Beads were subsequently washed 7 times with 1 ml PBS+0.1% Triton X-100, and then resuspended in PAGE loading buffer (Thermo Fisher), boiled for 3 minutes and loaded onto 4-15% gradient gel and processed as described for Westerns above. Gels were run in Lamelli buffer (25 mM Tris-base, 192 mM glycine, 0.1% SDS). Antibodies to CXCR7 were used in western blot analysis of PAGE separated MEF cells solubilised 1%.

[3] = biological target: T1, CXCR4 (Mus musculus, UniProt P70658); conditions: in vivo; cited from earlier work
T1 sequence (P70658 whole entry): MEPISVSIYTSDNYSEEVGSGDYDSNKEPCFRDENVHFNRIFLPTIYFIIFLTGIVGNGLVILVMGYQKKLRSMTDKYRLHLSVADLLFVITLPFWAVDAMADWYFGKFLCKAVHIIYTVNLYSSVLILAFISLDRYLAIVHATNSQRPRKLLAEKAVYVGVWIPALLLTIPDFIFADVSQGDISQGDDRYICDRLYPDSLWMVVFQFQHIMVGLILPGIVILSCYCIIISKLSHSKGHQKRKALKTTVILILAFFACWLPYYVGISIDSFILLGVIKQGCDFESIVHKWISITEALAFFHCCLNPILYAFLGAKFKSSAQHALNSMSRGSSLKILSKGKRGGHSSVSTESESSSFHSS

[4] = biological target: T1, CXCR4; conditions: in vivo; cited from earlier work; remark: listed apart in the source
[5] = tested on: primary murine embryonic fibroblasts; assay: Immunofluorescence pattern of 5T4 and CXCR4 in primary murine embryonic fibroblasts after cytoskeleton, Golgi or microtubule disruption; format: cell-based, mouse; conditions: for cell surface expression and colocalisation of 5T4 and CXCR4 versus untreated controls: 985 nM cytochalasin D or 3.6 μM brefeldin A; for cell surface expression and colocalisation of 5T4 and CXCR4 after washout: one hour after washout
Description: Immunofluorescence In Situ. These studies were performed using methods described previously (39), with cells grown on 24 well glass bottomed plates, (Iwaki, supplied through Jencons) for ES cells the wells were pre coated with 0.1% gelatine. Primary antibodies used were rabbit anti-CXCR4, (5 μg/ml) (Abcam), rat-anti-DPIV (5 μg/ml), (R&D), mAb anti-human 5T4 (10 μg/ml,), mAb anti-m5T4, 9A7 (20 μg/ml), B3F1 (5 μg/ml), rabbit anti-CXCR7 (AbCam, 5 μg/ml), rat mAb anti-CXCR6 (R&D, 5 μg/ml), rat mAb anti-CXCR3 (R&D, 5 μg/ml), Alexa Fluor 488 mouse anti-myc tag clone 4A6 (Millipore) or appropriate isotype controls. Secondary detection was performed by incubation for 1 hour at 4° C. with species or IgG sub-class specific Alexa Fluor conjugated secondary antibodies (Invitrogen) (6 μg/ml) as appropriate for multiple antigen detection. Labelling of the endoplasmic reticulum and Golgi apparatus was performed using NBD C6-Ceramide or Endotracker, (Invitrogen, Molecular Probes) as per manufacturer's instructions. […]. F-Actin was labeled using Phaloidin-633 Alexa Fluor (Invitrogen). Microtubules were visualised by murine IgG recognizing β-tubulin (Cancer Research UK). Cells were imaged on a Zeiss Axiovert 200M with a plan-fluar ×100 1.45NA objective lens and a Roper Cascade EMCCD 512B camera. Illumination was achieved using a 300W Xenon system, (Sutter) which presented the system as an even field of illumination in addition to the appropriate neutral density and Schott filters to modulate the light source. Wavelength selection was achieved using external filter wheels, (Applied Scientific Instrumentation) and the ETSedat set, (Chroma). Data sets were captured with an axial resolution of 100 nm using the MS-2000 stage (Applied Scientific Instrumentation) and a lateral resolution of 0.1645 microns per pixel. The system was full controlled and automated via the FRAP-AI software, (MAG Biosystems/Metamorph). All of the data sets were deconvolved using Huygens (Scientific Volume Imaging) after which visualization and analysis was carried out using Imaris, (Bitplane). Colocalisation was assessed by analysis of the deconvolved images utilising ImarisColoc software (Bitplane) in manual mode. A 2D scatter plot showing intensity pairs in the image was thresholded to include only colocalized points in the three dimensional volume.
Primary murine embryonic fibroblasts were assessed for their pattern of 5T4 and CXCR4 expression by immunofluorescence following disruption of the cytoskeleton, Golgi or microtubules for 24 hours with cytochalasin D, brefeldin A or nocodazole respectively. Cytoskeleton, Golgi and microtubule disruption was determined by immunofluorescence with AlexaFluor 633 conjugated phalloidin, BODIPY labeled NBD C6 ceramide and anti-tubulin antibodies respectively. […] Clearly plasma membrane detection of co-localized 5T4/CXCR4 molecules is dependent on microtubules and the molecules are not obligatorily associated at the Golgi.

[6] = tested on: 5T4KO ES cells; assay: CXCL12 chemotaxis of 5T4KO ES cells in transwell chambers; format: cell-based, mouse; conditions: undifferentiated or differentiating 5T4KO ES cells; 10 μM
Description: as §1

[7] = tested on: JEG-3; assay: CXCL12 chemotaxis of JEG-3 choriocarcinoma cells; format: cell-based, human; conditions: 10 μM diprotin A, 30 ng/well CXCL12
Description: as §1

[8] = tested on: SKOV3; assay: CXCL12 chemotaxis of SKOV3 ovarian carcinoma cells; format: cell-based, human; conditions: 10 μM diprotin A, 10 ng/well CXCL12
Description: as §1, with “at a concentration of 10 ng/well for ES cell experiments, and 30 ng/well for all others.” left out
A series of 5T4 constructs were built for this study and cloned into pCMVα, and the retroviral vector SFβ91 [32] that we had previously inserted the cDNA cassette eGFP under the transcriptional control of an IRES (Clonetech). […] A multiplicity of 30 infectious units per cell led to 100% of cells expressing m5T4 or h5T4 or GFP at 48 hours as assessed by FACS and when other biological assessments were made. […] After 3 days, GFP positive cells were FACS sorted and assessed for 5T4 expression and chemotaxis to CXCL12.

[9] = tested on: CAOV3; assay: CXCL12 chemotaxis of CAOV3 ovarian carcinoma cells; format: cell-based, human; conditions: 10 μM diprotin A, 10 ng/well CXCL12
Description: as §1, with “at a concentration of 10 ng/well for ES cell experiments, and 30 ng/well for all others.” left out

[10] = tested on: WT and 5T4KO ES cells; assay: CXCL10 chemotaxis of ES cells; format: cell-based, mouse; conditions: 100 ng/well CXCL10

c1cc(CN2CCCNCCNCCCNCC2)ccc1CN1CCCNCCNCCCNCC1 [AMD3100]
chemotaxis to CXCL12 with CXCR4 inhibitor ([1]; differentiating WT-ES cells, 2 hr pre-incubation with 10 μM): blocked
chemotaxis to CXCL12 with CXCR4 inhibitor ([1]; undifferentiated WT-ES cells, 10 μM): no effect
increase in ERK phosphorylation in response to CXCL12 stimulation [2]: prevented
increase in ERK1/2 phosphorylation in response to PMA stimulation [2]: independent of both CXCR4 and PI3K activity
allergic lung inflammation and airway hyperreactivity [3]: attenuates

c1ccc(CNCc2ccc(CN3CCCNCCNCCCNCC3)cc2)nc1 [AMD3465]
pulmonary granuloma formation [4]: eliminates

COc1cccc(-c2cc(=O)c3ccccc3o2)c1N [PD98059]
increase in ERK phosphorylation in response to CXCL12 stimulation [2]: prevented
increase in ERK1/2 phosphorylation in response to PMA stimulation [2]: blocked by MEK1 inhibition

C[C@H]1CCC/C=C/[C@@H]2C[C@H](O)C[C@H]2[C@H](O)/C=C/C(=O)O1 [brefeldin A]
cell surface expression and colocalisation of 5T4 and CXCR4 versus untreated controls ([5]; 24 hours): reduced levels of cell surface expression of both antigens
cell surface expression and colocalisation of 5T4 and CXCR4 after washout [5]: returned to normal levels; also recorded: returned to levels with marked cell surface colocalisation similar to that of controls

C=C1[C@@H](C)[C@H]2[C@H](Cc3ccccc3)NC(=O)[C@]23[C@H](OC(C)=O)/C=C/[C@@](C)(O)C(=O)[C@@H](C)C/C=C/[C@H]3[C@@H]1O [cytochalasin D]
polymerized actin filaments (phalloidin immunofluorescence) ([5]; 24 hours treatment, 985 nM cytochalasin D): no polymerized actin filaments were detectable
cell surface expression and colocalisation of 5T4 and CXCR4 versus untreated controls ([5]; 24 hours): no detectable differences

CC[C@H](C)[C@H](N)C(=O)N1CCC[C@H]1C(=O)N[C@H](C(=O)O)[C@@H](C)CC [diprotin A]
chemotactic response to CXCL12 with CD26 inhibitor [6]: did not restore chemotactic behaviour; also recorded: no change in chemotactic response
CXCL12-mediated chemotaxis with CD26 inhibitor [7]: only evident in the presence
CXCL12 chemotaxis with CD26 inhibitor [8]: further enhanced
CXCL12 chemotaxis with CD26 inhibitor [9]: further enhanced
chemotaxis towards CXCL10 with CD26 inhibitor ([10]; undifferentiated ES cells, 10 μM): acquire increased chemotaxis towards CXCL10

COC(=O)Nc1nc2ccc(C(=O)c3cccs3)cc2[nH]1 [nocodazole]
cell surface detection of 5T4 ([5]; 24 hours, 332 nM nocodazole): remained detectable at the cell surface albeit at a diminished level; also recorded: still detectable at the cell surface albeit at a diminished level
cell surface detection of CXCR4 ([5]; 24 hours, 332 nM nocodazole): no cell surface detection of CXCR4
cell surface expression and colocalisation of 5T4 and CXCR4 after washout [5]: both antigens were detectable at the cell surface with marked colocalisation similar to controls

pertussis toxin
CXCL10 related chemotaxis with Gi protein inhibitor ([10]; WT and KO differentiating ES cells, 10 ng/ml): inhibits CXCL10 related chemotaxis
